PubChem BioAssay (NCI)
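Growth conditions: 96-well plates. Treatment: test compound, 48 hours, 5 concentrations. Analysis: linear interpolation between bracketing concentrations; unreached endpoints set to highest concentration. The concentration for full growth arrest is given as TGI.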 Activity calls are given as the source filed them. Rule as the data show it: active = GI50 below about 0.43 µM; inactive = the rest.

Legend:
Assay in all cases: growth of human tumour cells (NCI), 48 h
CCRF-CEM leukemia = test system: CCRF-CEM leukemia
SF-539 CNS = test system: SF-539 CNS
NCI-H23 lung = test system: NCI-H23 lung
K-562 leukemia = test system: K-562 leukemia
RPMI-8226 leukemia = test system: RPMI-8226 leukemia
U251 CNS = test system: U251 CNS
NCI-H522 lung = test system: NCI-H522 lung
OVCAR-4 ovarian = test system: OVCAR-4 ovarian
OVCAR-5 ovarian = test system: OVCAR-5 ovarian
IGROV1 ovarian = test system: IGROV1 ovarian
SN12C renal = test system: SN12C renal
786-0 renal = test system: 786-0 renal
MALME-3M melanoma = test system: MALME-3M melanoma
A549 NSCLC = test system: A549 NSCLC
SK-MEL-5 melanoma = test system: SK-MEL-5 melanoma
ACHN renal = test system: ACHN renal
SK-OV-3 ovarian = test system: SK-OV-3 ovarian
SW-620 colon = test system: SW-620 colon
RXF 393 renal = test system: RXF 393 renal
HCT-15 colon = test system: HCT-15 colon
COLO 205 colon = test system: COLO 205 colon
NCI-H460 lung = test system: NCI-H460 lung
SF-295 CNS = test system: SF-295 CNS
HCT-116 colon = test system: HCT-116 colon
UACC-62 melanoma = test system: UACC-62 melanoma
NCI-H226 lung = test system: NCI-H226 lung
SK-MEL-28 melanoma = test system: SK-MEL-28 melanoma
LOX IMVI melanoma = test system: LOX IMVI melanoma
UACC-257 melanoma = test system: UACC-257 melanoma
SF-268 CNS = test system: SF-268 CNS
KM12 colon = test system: KM12 colon
OVCAR-3 ovarian = test system: OVCAR-3 ovarian
LXFL 529 NSCLC = test system: LXFL 529 NSCLC
HCC-2998 colon = test system: HCC-2998 colon
HOP-62 NSCLC = test system: HOP-62 NSCLC
EKVX NSCLC = test system: EKVX NSCLC
SK-MEL-2 melanoma = test system: SK-MEL-2 melanoma
A498 renal = test system: A498 renal
HT29 colon = test system: HT29 colon
UO-31 renal = test system: UO-31 renal
SNB-78 CNS = test system: SNB-78 CNS
OVCAR-8 ovarian = test system: OVCAR-8 ovarian
SNB-19 CNS = test system: SNB-19 CNS
SR leukemia = test system: SR leukemia
HOP-92 NSCLC = test system: HOP-92 NSCLC
MOLT-4 leukemia = test system: MOLT-4 leukemia
CAKI-1 renal = test system: CAKI-1 renal
M14 melanoma = test system: M14 melanoma
DMS 114 small cell lung = test system: DMS 114 small cell lung
PC-3 prostate = test system: PC-3 prostate
MDA-MB-435 = test system: MDA-MB-435
T-47D breast = test system: T-47D breast
DU-145 prostate = test system: DU-145 prostate
DLD-1 colon = test system: DLD-1 colon
HS 578T breast = test system: HS 578T breast
NCI/ADR-RES ovarian = test system: NCI/ADR-RES ovarian
MDA-MB-231 breast = test system: MDA-MB-231 breast
KM20L2 colon = test system: KM20L2 colon
MCF7 breast = test system: MCF7 breast

For `O=C(Nc1cccc([N+](=O)[O-])c1)/C(=N\NC(=O)c1ccncc1)c1nc2ccc([N+](=O)[O-])cc2[nH]c1=O`, the TGI (CCRF-CEM leukemia) was > 100 µM, the TGI (SF-539 CNS) was > 100 µM and the TGI (NCI-H23 lung) was > 100 µM. The TGI (K-562 leukemia) was > 100 µM, the TGI (RPMI-8226 leukemia) was > 100 µM and the TGI (U251 CNS) was > 100 µM. The TGI (NCI-H522 lung) was > 100 µM, the TGI (OVCAR-4 ovarian) was > 100 µM and the TGI (OVCAR-5 ovarian) was > 100 µM. For the same compound, the TGI (IGROV1 ovarian) was > 100 µM, the TGI (SN12C renal) was > 100 µM and the TGI (786-0 renal) was > 100 µM. For the same compound, the TGI (MALME-3M melanoma) was > 100 µM, the TGI (A549 NSCLC) was > 100 µM and the TGI (SK-MEL-5 melanoma) was > 100 µM. For the same compound, the TGI (ACHN renal) was > 100 µM, the TGI (SK-OV-3 ovarian) was > 100 µM and the TGI (SW-620 colon) was > 100 µM. The TGI (RXF 393 renal) was > 100 µM, the TGI (HCT-15 colon) was > 100 µM and the TGI (COLO 205 colon) was > 100 µM. For the same compound, the TGI (NCI-H460 lung) was > 100 µM, the TGI (SF-295 CNS) was > 100 µM and the TGI (HCT-116 colon) was > 100 µM. For the same compound, the TGI (UACC-62 melanoma) was > 100 µM, the TGI (NCI-H226 lung) was > 100 µM and the TGI (SK-MEL-28 melanoma) was > 100 µM. The TGI (LOX IMVI melanoma) was > 100 µM, the TGI (UACC-257 melanoma) was > 100 µM and the TGI (SF-268 CNS) was > 100 µM. The TGI (KM12 colon) was > 100 µM, the TGI (OVCAR-3 ovarian) was > 100 µM and the TGI (LXFL 529 NSCLC) was > 100 µM. For the same compound, the TGI (HCC-2998 colon) was 93.8 µM, the TGI (HOP-62 NSCLC) was > 100 µM and the TGI (EKVX NSCLC) was > 100 µM. The TGI (SK-MEL-2 melanoma) was > 100 µM, the TGI (A498 renal) was > 100 µM and the TGI (HT29 colon) was > 100 µM. The TGI (UO-31 renal) was > 100 µM, the TGI (SNB-78 CNS) was > 100 µM and the TGI (OVCAR-8 ovarian) was > 100 µM. The TGI (SNB-19 CNS) was > 100 µM, the TGI (SR leukemia) was > 100 µM and the TGI (HOP-92 NSCLC) was > 100 µM. The TGI (MOLT-4 leukemia) was > 100 µM, the TGI (CAKI-1 renal) was > 100 µM and the TGI (M14 melanoma) was > 100 µM. The TGI (DMS 114 small cell lung) was > 100 µM.

With `OCCNCN(CNCCO)c1nc(N(CNCCO)CNCCO)nc(N(CNCCO)CNCCO)n1` the TGI (CCRF-CEM leukemia) was 0.0602 µM, the outcome (SF-539 CNS) was “inactive” and the outcome (NCI-H23 lung) was “inactive”. The TGI (K-562 leukemia) was 0.15 µM, the outcome (U251 CNS) was “inactive” and the outcome (PC-3 prostate) was “inactive”. The outcome (OVCAR-5 ovarian) was “inactive”, the outcome (IGROV1 ovarian) was “inactive” and the outcome (MDA-MB-435) was “inactive”. For the same compound, the outcome (T-47D breast) was “inactive”, the outcome (SN12C renal) was “inactive” and the TGI (A549 NSCLC) was 0.257 µM. The outcome (A549 NSCLC) was “inactive”, the outcome (ACHN renal) was “inactive” and the outcome (DU-145 prostate) was “inactive”. For the same compound, the outcome (SW-620 colon) was “inactive”, the TGI (DLD-1 colon) was 0.405 µM and the outcome (HS 578T breast) was “inactive”. The TGI (COLO 205 colon) was 0.0877 µM, the TGI (NCI-H460 lung) was 0.354 µM and the outcome (NCI-H460 lung) was “inactive”. The TGI (SF-295 CNS) was 0.147 µM, the outcome (SF-295 CNS) was “inactive” and the outcome (NCI-H226 lung) was “inactive”. The outcome (SK-MEL-28 melanoma) was “inactive”, the outcome (UACC-257 melanoma) was “inactive” and the outcome (NCI/ADR-RES ovarian) was “inactive”. For the same compound, the outcome (SF-268 CNS) was “inactive”, the TGI (KM12 colon) was 0.55 µM and the outcome (OVCAR-3 ovarian) was “inactive”. For the same compound, the outcome (MDA-MB-231 breast) was “inactive”, the outcome (EKVX NSCLC) was “inactive” and the outcome (HT29 colon) was “inactive”. For the same compound, the TGI (UO-31 renal) was 0.25 µM, the TGI (SNB-78 CNS) was 0.203 µM and the outcome (OVCAR-8 ovarian) was “inactive”. The outcome (SNB-19 CNS) was “inactive”, the outcome (HOP-92 NSCLC) was “inactive” and the TGI (KM20L2 colon) was 0.322 µM. The TGI (MOLT-4 leukemia) was 0.205 µM, the outcome (MOLT-4 leukemia) was “inactive” and the outcome (MCF7 breast) was “inactive”. The outcome (CAKI-1 renal) was “inactive”.
